How the values were obtained:
[1] = xn = mol fraction of the nth substance listed; conditions: 101 kPa, Liquid, x2 = 0; for mass density: Vibrating tube method
[2] = refractive index (Na D-line) (dimensionless); xn = mol fraction of the nth substance listed; conditions: 101 kPa, Liquid, Dipping refractometry (monochromatic), x2 = 0
[3] = 293.15 K; 101.33 kPa; Liquid; Vibrating tube method

CCCCO [butan-1-ol] + COC(=O)CCCCC(=O)OC
[1], stabinger viscometer
Conditions	viscosity [mPa·s]
288.15 K	3.375
293.15 K	2.945
298.15 K	2.581
303.15 K	2.272
308.15 K	2.008
313.15 K	1.782
318.15 K	1.587
323.15 K	1.419

CCCCO [butan-1-ol] + C1CCOC1
Conditions	mass density, [1] [kg/m3]	refractive index, [2]	viscosity, [1] [mPa·s]
288.15 K	813.37	1.4014	3.375
293.15 K	809.57	1.3993	2.945
298.15 K	805.76	1.3973	2.581
303.15 K	801.92	1.3952	2.272
308.15 K	798.05	1.3932	2.008
313.15 K	794.15	1.3911	1.782
318.15 K	790.23	1.389	1.587
323.15 K	786.24	1.3869	1.419

COC(=O)CCCCC(=O)OC [dimethyl 1,6-hexanedioate]
Conditions	mass density [kg/m3]
[3]	1061.93

— the NIST ThermoML archive (doi:10.1021/je4003916)
